# Counter-ions that a name gives are not always drawn.
# Legend:
# [1] = FTIR spectroscopy of drug encapsulated in resin microneedles (changes during fabrication); format: physicochemical; settings: drug encapsulated in cured resin microneedle vs powder
# Source text: FTIR spectroscopy was used to evaluate possible changes in the encapsulated drugs during the fabrication process. A Nicolet 6700 (ThermoScientific™; Waltham, MA, USA) with a Smart™ iTX ATR accessory having a diamond crystal was used. […] In FTIR, an increase in the peak intensity usually reflects an increase in the amount (per unit volume) of the functional group associated with the molecular bond, whereas a shift in peak position usually reflects a change in the hybridization state or electron distribution in the molecular bond. […] The peaks at 1721 cm^−1 and 3400 cm^−1 are assigned to the stretching vibrations of C═O and O—H, respectively.
# [2] = In vitro dye release from dye-loaded microneedle patch into parafilm-covered gelatin; format: physicochemical; settings: 10% gelatin covered with parafilm
# Procedure: In order to show in vitro release of the microneedles visually, a resin/dye paste was prepared. A biocompatible resin (Dental SG) from Formlabs (Somerville, MA, USA) and sulforhodamine B (SKU: 230162-5G, MilliporeSigma; Burlington, MA, USA) as dye were used. Due to the small size of the microneedles, the dye particles were ground into finer particles with smaller sizes. The encapsulation of unground and ground dye in microneedles was compared by preparing microneedles with both unground and ground sulforhodamine B particles. The unground and ground particles of the dye are shown in FIGS. 35a and 35b, respectively, and the size distribution of the unground and ground dye is shown in FIG. 35c. On average, the unground and ground dye particles had particle sizes of about 50 micrometers and 6 micrometers, respectively. […] A solid acrylic ring was added around the substrate so that the microneedle patch could be held and applied easily (see FIG. 35g). The in vitro dye release experiment is shown schematically in FIG. 35h. A 10% gelatin (gelatin from porcine skin, SKU: G2500-1KG from Millipore Sigma) solution was prepared as a model tissue and was poured in a petri dish. Then, it was placed in the refrigerator for 20 minutes to further solidify. A thin layer of parafilm (Parafilm ° M, Amcor; Zurich, Switzerland) was then used as a skin model to cover the gelatin solution in the petri dish.
# circulating B cells = assay: In vivo primate study, rituximab IV versus microneedle transdermal delivery, circulating B cells by flow cytometry; parameters: species or system African green monkeys; settings: IV dosing, first week
# Procedure: An in vivo primate study was performed to compare the systemic pharmacodynamic effect of rituximab (RTX) following intravenous (IV) delivery versus microneedle-mediated, transdermal (TD) delivery in African green monkeys. […] The pharmacodynamic effect was quantified by the measurement of circulating B cells by flow cytometry (all these graphs are generated by flow cytometry), employing rituximab as a tool compound to assess the ability of a novel microneedle formulation and delivery technology to achieve systemic bioavailability of macromolecules (e.g. monoclonal antibodies) following transdermal delivery. […] The depletion over time for the two patches is shown in FIG. 29 for 0, 1, 7, 14 and 21 days.
# CD20+ cells = assay: In vitro whole blood assay with RTX-loaded microneedle patches, flow cytometry; format: cell-based, human
# Procedure: To evaluate the effectiveness of the treatment being delivered through microneedles an in vitro model, a whole blood assay was performed using Rituximab (RTX) as the drug. Rituximab is a chimeric monoclonal antibody against the protein CD20, which is primarily found on the surface of immune system B cells. When it binds to this protein it triggers cell death via Complement-Dependent Cytotoxicity (CDC). RTX is a good model to evaluate the mAb delivery mechanism mainly because of its clear pharmacodynamics outcome, the depletion of CD20+B-Cell in whole blood. Microneedle patches with five different amounts of RTX and a constant polymer-to-drug ratio were incubated in freshly collected human blood in a 24-well plate. Flow cytometry was used to quantify CD20+ and CD19+ cells in each well. […] CD20+ cells are present in samples (a) through (c) on the left but absent from samples (d) through (f) on the right. The conditions are as follows: (a) Buffy coat and serum without microneedle (MN) exposure and prior to incubation; (b) Blood without MN exposure and after 4 h incubation; (c) Blood with exposure to an inert MN after incubation; (d) Blood after incubation with one MN (20 μg RTX); (e) blood after incubation with five MNs (100 μg RTX); and (f) blood after incubation with 200 MNs (4 mg RTX). […]
compound,measurement,setting,value
"CC(C)Cc1ccc(C(C)C(=O)[O-])cc1.[Na+] (centres unmarked) [ibuprofen, ibuprofen sodium salt]",chemical structure during the fabrication process (FTIR),[1],remained unchanged
"CCN(CC)CC(=O)Nc1c(C)cccc1C [lidocaine, lidocaine hydrochloride monohydrate]",chemical structure during the fabrication process (FTIR),[1],remained unchanged
CCN(CC)c1ccc2c(-c3ccc(S(=O)(=O)O)cc3S(=O)(=O)[O-])c3ccc(=[N+](CC)CC)cc-3oc2c1 [sulforhodamine B],release of the dye into the gelatin solution,[2],visible release
Rituximab,B-cell depletion in blood,circulating B cells,most significant B-cell depletion
same,activity of RTX after completion of the microneedle patch manufacturing process,CD20+ cells,preserved

# Source: patent US12589229B2, “Macroporous solid hard microneedles with embedded particulate drugs” (priority 2021, dated 2026)
